What is called EC50 is the concentration that produces a half-maximal response. High values mean weaker potency, low ones greater potency.

The values that follow come from patent US8921398B2 (Boehringer Ingelheim International GmbH, priority 2011, dated 2014).

In assay [1] the target is T1, mutant form of the human GPR119 receptor (Homo sapiens, UniProt Q8TDV5, S329A/T327A).
T1 construct: expressed in transfected cells
T1 sequence (Q8TDV5 with tags, fused parts or gaps T327A/S329A): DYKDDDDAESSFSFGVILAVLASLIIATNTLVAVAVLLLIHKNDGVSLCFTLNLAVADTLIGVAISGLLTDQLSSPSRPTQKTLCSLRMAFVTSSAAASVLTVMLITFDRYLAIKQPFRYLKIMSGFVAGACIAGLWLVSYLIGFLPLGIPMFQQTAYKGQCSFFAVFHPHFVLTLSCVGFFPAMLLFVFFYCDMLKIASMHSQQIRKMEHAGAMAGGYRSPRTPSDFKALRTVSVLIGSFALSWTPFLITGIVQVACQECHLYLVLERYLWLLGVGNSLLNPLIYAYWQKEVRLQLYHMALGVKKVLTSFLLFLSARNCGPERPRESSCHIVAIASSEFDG
Put plainly: LANCE cAMP-384 assay in HEK293 cells stably expressing a mutant form of the human GPR119 receptor. The format is cell-based. Particulars: cAMP accumulation, GPR119 stable HEK293 cells, LANCE kit, 20 min at 37° C. How it is done: Quantitative detection of cAMP accumulation from cells expressing human GPR119 receptor is achieved using Perkin Elmer's LANCE cAMP-384 Kit (Cat#AD0264) according to the manufacturer's protocol. Briefly, HEK293 cells stably expressing a mutant form of the human GPR119 receptor as assay tool (Methionine 1 replaced with the amino acid sequence […], and T327 & S329 changed to alanines; SEQ ID No. 1) are grown to 50-70% confluency in cell culture media (DMEM, 10% heat inactivated Fetal Bovine Serum, 50 I.U./mL penicillin, 50 μg/mL streptomycin, 10 mM HEPES, 20 μg/mL G418 Sulfate). On the day of the assay, GPR119 stable HEK293 cells are lifted from the tissue culture plate and 1000 cells/well are incubated along with various concentrations of test compounds for 20 min at 37° C. Detection Buffer (50 mM HEPES, 10 mM calcium chloride, 0.35% Triton X-100, 1 mg/mL BSA) containing cAMP-specific antibody is then added to all wells and allowed to equilibrate in the dark for 10 minutes at room temperature. Upon equilibration, Detection Buffer containing europium-labeled cAMP tracer complex is added to all wells and allowed to react for 1 hour at room temperature. After 1 hour, bound europium-labeled cAMP tracer is measured using a Perkin Elmer Envision plate reader. The quantity of cAMP generated in each well is derived from a standard curve. EC50 is determined using nonlinear regression analysis of the cAMP values over a range of agonist concentration (12 points spanning the range from 30 μM to 100 pM).
On the technique in general: TR-FRET usually uses a lanthanide donor and a delayed reading to cut background.

The next assay has as its target T2, human GPR119 (Homo sapiens, UniProt Q8TDV5).
T2 construct: expression vector for human GPR119 cDNA (Acc. No. NP_848566); expressed in transfected cells
T2 sequence (Q8TDV5 1-335): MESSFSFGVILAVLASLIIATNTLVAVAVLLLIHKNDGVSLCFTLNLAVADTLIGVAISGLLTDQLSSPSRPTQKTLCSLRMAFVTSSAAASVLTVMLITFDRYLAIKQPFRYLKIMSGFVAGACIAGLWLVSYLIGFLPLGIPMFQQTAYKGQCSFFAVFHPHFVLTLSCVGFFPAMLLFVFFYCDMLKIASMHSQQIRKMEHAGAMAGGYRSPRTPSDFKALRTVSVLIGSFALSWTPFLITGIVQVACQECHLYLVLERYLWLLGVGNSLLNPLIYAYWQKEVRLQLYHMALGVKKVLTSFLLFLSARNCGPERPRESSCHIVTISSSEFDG
Put plainly: AlphaScreen cAMP assay in MIN6 cells stably transfected with human GPR119. Particulars: Min-6/hGPR119 cells, 45 minutes incubation at room temperature. The format is cell-based. Here is the method: The compounds of formula I according to the invention modulate the activity of the G-protein-coupled receptor GPR119. The effect of the compounds on the activation of GPR119 and on the stimulation of intracellular cAMP concentration is determined using the AlphaScreen cAMP Assay Kit (Cat.No.#6760625R) made by PerkinElmer.
MIN6 cells [Miyazaki J et al. Endocrinology. 1990 July; 127(1):126-32] are stably transfected with an expression vector for human GPR119 cDNA (Acc. No. NP_848566). Min-6/hGPR119 cells are cultured in DMEM, 10% FBS, 50 μM β-mercaptoethanol, 0.3 mg/mL Geniticin, 2 mM GlutaMAX at 37° C. 5% CO2. For the assay, the cells are seeded in Optiplates (white, 384-well, 160W-barcoded, TC, sterile with lid, Cat.No.#6007688 (Perkin Elmer); 10000 cells/well; 50 μl). The plates covered with lids are then incubated for 24 hours at 37° C./5% CO2. After the medium is aspirated from the wells completely, 10 μl of the test compound are added, the compounds are diluted using stimulating buffer (140 mM NaCl, 3.6 mM KCl, 0.5 mM NaH2PO4, 0.5 mM MgSO4, 1.5 mM CaCl2, 10 mM Hepes, 5 mM NaHCO3; pH 7.4. 0.5 mM IBMX and 0.1% BSA, the final DMSO concentration is 1%). After 45 minutes incubation at room temperature (approx. 20° C.), the cAMP concentrations are determined using the AlphaScreen cAMP Assay Kit (Cat.No.#6760625R from PerkinElmer).
(In general: Bead proximity is the source of the signal in Alpha formats.)

With `CCc1cnc(N2CCC(N(C(=O)c3cn(-c4ccc(C#N)cc4F)cn3)C3CC3)C(F)C2)nc1` (single isomer, unassigned) [Example 109], the response in assay [1] was half-maximal at 0.053 µM (EC50).
Still for that read-out and setting: the figure for `CCc1cnc(N2CC[C@@H](N(C(=O)c3cn(-c4ccc(C#N)cn4)c(C)n3)C3CC3)[C@@H](F)C2)nc1` (single isomer, unassigned) [Example 110] is 0.363 µM; for `CCc1cnc(N2CC[C@@H](N(C(=O)c3cn(-c4ccc(S(C)(=O)=O)cc4F)c(C)n3)C3CC3)[C@@H](F)C2)nc1` (single isomer, unassigned) [Example 111] it is 1.61 µM.
Still for that read-out and setting: the figure for `CCc1cnc(N2CC[C@@H](N(C(=O)c3cn(-c4ccc(C#N)cc4F)c(C)n3)C3CC3)[C@@H](F)C2)nc1` (single isomer, unassigned) [Example 112] is 0.789 µM.
As to `O=C(c1cnc(-n2ccnc2)nc1)N(C1CC1)C1CCN(c2nc(-c3ccccc3)no2)CC1` [Example 1, 2-Imidazol-1-yl-pyrimidine-5-carboxylic acid cyclopropyl-[1-(3-phenyl-[1,2,4]oxadiazol-5-yl)-piperidin-4-yl]-amide], the EC50 on human GPR119 stood at 0.031 µM.
`O=C(c1cnc(-c2ccncc2)nc1)N(C1CC1)C1CCN(c2nc(-c3ccccc3)no2)CC1` [Example 2, 2-Pyridin-4-yl-pyrimidine-5-carboxylic acid cyclopropyl-[1-(3-phenyl-[1,2,4]oxadiazol-5-yl)-piperidin-4-yl]-amide] came in with an EC50 at human GPR119 of 0.011 µM.
The same measure, in the same setting: then `CCOc1ccc(-c2ncc(C(=O)N(C3CC3)C3CCN(c4ncc(CC)cn4)CC3)cn2)cn1` [Example 3, 2-(6-Ethoxy-pyridin-3-yl)-pyrimidine-5-carboxylic acid cyclopropyl-[1-(5-ethyl-pyrimidin-2-yl)-piperidin-4-yl]-amide], with 0.487 µM.
Still for that read-out and setting: then `CCc1cnc(N2CCC(N(C(=O)c3cnc(-c4ccc(C#N)c(F)c4)nc3)C3CC3)CC2)nc1` [Example 4], with 0.094 µM.
On the same count and under the same terms, then `CCc1cnc(N2CCC(N(C(=O)c3cnc(-c4ccc(CC#N)cc4)nc3)C3CC3)CC2)nc1` [Example 5, 2-(4-Cyanomethyl-phenyl)-pyrimidine-5-carboxylic acid cyclopropyl-[1-(5-ethyl-pyrimidin-2-yl)-piperidin-4-yl]-amide], with 0.118 µM; and `CC(C)c1noc(N2CCC(N(C(=O)c3ccc(-c4ccc(S(C)(=O)=O)cc4)nc3)C3CC3)CC2)n1` [Example 6, N-Cyclopropyl-N-[1-(3-isopropyl-[1,2,4]oxadiazol-5-yl)-piperidin-4-yl]-6-(4-methanesulfonyl-phenyl)-nicotinamide], with 0.096 µM.
With `Cc1nccn1-c1ccc(C(=O)N(C2CC2)C2CCN(c3ncc(C(F)(F)F)cc3F)CC2)cn1` [Example 43], the EC50 in assay [1] stood at 0.073 µM.
The same measure, in the same setting: then `Cc1ncnn1-c1ccc(C(=O)N(C2CC2)C2CCN(c3ncc(C(F)(F)F)cc3F)CC2)cn1` [Example 44], with 0.022 µM; and `O=C(c1cnc(-n2cncn2)cn1)N(C1CC1)C1CCN(c2ncc(C(F)(F)F)cc2F)CC1` [Example 46], with 0.078 µM; and `O=C(c1cnc(-n2cncn2)nc1)N(C1CC1)C1CCN(c2ncc(C(F)(F)F)cc2F)CC1` [Example 47], with 0.125 µM.
Still for that read-out and setting: the figure for `Cc1ncn(-c2cnc(C(=O)N(C3CC3)C3CCN(c4ncc(C(F)(F)F)cc4F)CC3)cn2)n1` [Example 48] is 0.027 µM; for `Cc1nnnn1-c1ccc(C(=O)N(C2CC2)C2CCN(c3ncc(C(F)(F)F)cc3F)CC2)cn1` [Example 49] it is 0.009 µM; for `Cc1ncnn1-c1ncc(C(=O)N(C2CC2)C2CCN(c3ncc(C(F)(F)F)cc3F)CC2)cn1` [Example 50] it is 0.148 µM.
Turning to `Cc1nccn1-c1ccc(C(=O)N(C2CC2)C2CCN(c3nc(C(C)C)no3)CC2)cn1` [Example 51], the EC50 in assay [1] was 0.593 µM.
The same measure, in the same setting: the figure for `Cc1ncnn1-c1ccc(C(=O)N(C2CC2)C2CCN(c3nc(C(C)C)no3)CC2)cn1` [Example 52] is 0.231 µM.
The same measure, in the same setting: the figure for `Cc1nccn1-c1cnc(C(=O)N(C2CC2)C2CCN(c3nc(C(C)C)no3)CC2)cn1` [Example 53] is 0.808 µM.
The same measure, in the same setting: then `CC(C)c1noc(N2CCC(N(C(=O)c3cnc(-n4cncn4)cn3)C3CC3)CC2)n1` [Example 54], with 0.812 µM; and `Cc1nccn1-c1ncc(C(=O)N(C2CC2)C2CCN(c3nc(C(C)C)no3)CC2)cn1` [Example 55], with 0.512 µM.
As for `Cc1ncn(-c2cnc(C(=O)N(C3CC3)C3CCN(c4nc(C(C)C)no4)CC3)cn2)n1` [Example 56], the midpoint of the response in assay [1], the EC50, lay at 0.473 µM.
The same measure, in the same setting: then `Cc1nnnn1-c1ccc(C(=O)N(C2CC2)C2CCN(c3nc(C(C)C)no3)CC2)cn1` [Example 57], with 0.231 µM.
Same read-out and setting: then `CCc1cnc(N2CCC(N(C(=O)c3ccc(-n4ccnc4C)nc3)C3CC3)CC2)nc1` [Example 58], with 0.553 µM; and `CCc1cnc(N2CCC(N(C(=O)c3cnc(-n4ccnc4C)cn3)C3CC3)CC2)nc1` [Example 59], with 1.24 µM.
Still for that read-out and setting: then `CCc1cnc(N2CCC(N(C(=O)c3cnc(-n4cncn4)cn3)C3CC3)CC2)nc1` [Example 60], with 0.029 µM; and `CCc1cnc(N2CCC(N(C(=O)c3cnc(-n4cncn4)nc3)C3CC3)CC2)nc1` [Example 61], with 0.098 µM; and `CCc1cnc(N2CCC(N(C(=O)c3cnc(-n4cnc(C)n4)cn3)C3CC3)CC2)nc1` [Example 62], with 0.185 µM.
In assay [1], `Cc1nccn1-c1ccc(C(=O)N(C2CC2)C2CCN(c3ncc(Cl)cn3)CC2)cn1` [Example 63] came in with an EC50 of 0.385 µM.
In assay [1], `Cc1ncnn1-c1ccc(C(=O)N(C2CC2)C2CCN(c3ncc(Cl)cn3)CC2)cn1` [Example 64] showed an EC50 of 0.252 µM.
In assay [1], `Cc1nccn1-c1cnc(C(=O)N(C2CC2)C2CCN(c3ncc(Cl)cn3)CC2)cn1` [Example 65] had an EC50 of 0.333 µM.
Regarding `O=C(c1cnc(-n2cncn2)nc1)N(C1CC1)C1CCN(c2ncc(Cl)cn2)CC1` [Example 66], in assay [1], the half-maximal effective concentration (EC50) stood at 0.073 µM.
`Cc1nccn1-c1ncc(C(=O)N(C2CC2)C2CCN(c3ncc(Cl)cn3)CC2)cn1` [Example 67]: in assay [1], the EC50 came out at 0.045 µM.
On the same count and under the same terms, the figure for `Cc1ncn(-c2cnc(C(=O)N(C3CC3)C3CCN(c4ncc(Cl)cn4)CC3)cn2)n1` [Example 68] is 0.125 µM.
The same measure, in the same setting: then `CCc1cnc(N2CCC(N(C(=O)c3cn(-c4ccc(C#N)cn4)cn3)C3CC3)CC2)nc1` [Example 104], with 0.061 µM; and `CCc1cnc(N2CCC(N(C(=O)c3cn(-c4ccc(S(C)(=O)=O)cc4F)cn3)C3CC3)CC2)nc1` [Example 105], with 0.233 µM; and `CCc1cnc(N2CCC(N(C(=O)c3cn(-c4ccc(C#N)cc4F)cn3)C3CC3)CC2)nc1` [Example 106], with 0.057 µM.
